Where “and” joins values, the source holds several entries; their conditions need not be identical. Identical values can stand only once.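 Dose response: 5 concentrations. Exposure: 48 h. Format: 96-well plates. Endpoint: linear interpolation; highest concentration if not reached. GI50: concentration for 50% inhibition of growth. TGI: total growth inhibition.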 Where a SMILES comes first, the peptide text is derived from it. [ ]: non-standard residue; d: D form. Phe(F5) = N[CH](Cc1c(F)c(F)c(F)c(F)c1F)C(=O)O
Columns and labels:
Experiment in all cases: NCI tumour cell line growth inhibition, 48 h
DMS 114 small cell lung = test system: DMS 114 small cell lung
KM20L2 colon = test system: KM20L2 colon
LXFL 529 NSCLC = test system: LXFL 529 NSCLC
DLD-1 colon = test system: DLD-1 colon
XF 498 CNS = test system: XF 498 CNS
DMS 273 small cell lung = test system: DMS 273 small cell lung
SNB-78 CNS = test system: SNB-78 CNS
RXF-631 renal = test system: RXF-631 renal
MDA-N = test system: MDA-N
P388 leukemia = test system: P388 leukemia
SN12K1 renal = test system: SN12K1 renal

SMILES | TGI (DMS 114 small cell lung) | TGI (KM20L2 colon) | TGI (LXFL 529 NSCLC) | TGI (DLD-1 colon) | TGI (XF 498 CNS) | TGI (DMS 273 small cell lung) | TGI (SNB-78 CNS) | TGI (RXF-631 renal) | TGI (MDA-N) | other results
CCOP(=O)(OCC)C1CCCCOC1=O (configuration not stated) | > 100 µM | > 100 µM | > 100 µM | > 100 µM | > 100 µM | > 100 µM | > 100 µM | > 100 µM | – | –
COC(=O)C(CC(C)C)NC(=O)C(Cc1cnc[nH]1)NC(=O)CNC(=O)C(NC(=O)C(C)NC(=O)C(Cc1c[nH]c2ccccc12)NC(=O)C(CCC(=O)O)NC(=O)C(N)Cc1c(F)c(F)c(F)c(F)c1F)C(C)C (configuration not stated) (H-[Phe(F5)]EWAVGHL-OMe; configuration not given here) | > 100 µM | > 100 µM | > 100 µM | > 100 µM | > 100 µM | > 100 µM | > 100 µM | – | > 12.5 µM | –
CN1CCc2c1nc(-c1ccccc1)c1c2N(C)CC1 | – | > 100 µM | > 100 µM | > 100 µM | – | > 100 µM | > 100 µM | – | – | –
CC(=O)OC1c2ccccc2CC2(OC(C)=O)c3ccccc3C12 (configuration not stated) | – | – | – | – | – | – | – | – | > 100 µM | –
NCC1(N2CCOCC2)C2CCCC21CO (configuration not stated) | > 100 µM | – | > 100 µM | > 100 µM | – | > 100 µM | > 100 µM | – | – | –
O=C(CCn1[nH]c(=O)c(Cl)c(Cl)c1=O)NOCCCc1ccccc1 | – | > 100 µM | > 100 µM | > 100 µM | > 100 µM | > 100 µM | > 100 µM | > 100 µM | – | –
CC(=O)[O][Pb]([O]C(C)=O)([c]1ccccc1)[c]1ccccc1 | 4.16 µM | > 100 µM | > 100 µM | > 100 µM | – | > 100 µM | 7.63 µM | – | – | GI50 (DMS 114 small cell lung): 1.44 µM; GI50 (KM20L2 colon): 9.34 µM; GI50 (LXFL 529 NSCLC): 5.57 µM; GI50 (DLD-1 colon): 6.38 µM; GI50 (DMS 273 small cell lung): 2.88 µM; GI50 (SNB-78 CNS): 1.45 µM
O=C1c2ccccc2C(=O)N1CC1(C(=O)O)NCCS1(=O)=O (configuration not stated) | – | – | – | – | – | – | – | – | > 100 µM | –
COc1ccccc1[N-]C(C1=C([O-])c2ccccc2C1=O)c1ccccc1.COc1ccccc1[N-]C(C1=C([O-])c2ccccc2C1=O)c1ccccc1.[Cu+2] (configuration not stated) | > 100 µM | > 100 µM | > 100 µM | > 100 µM | – | > 100 µM | > 100 µM | > 100 µM | – | GI50 (DMS 114 small cell lung): 3.01 µM; GI50 (KM20L2 colon): 25.4 µM; GI50 (LXFL 529 NSCLC): 22.4 µM; GI50 (DLD-1 colon): 3.7 µM; GI50 (DMS 273 small cell lung): 4.59 µM; GI50 (SNB-78 CNS): 8.19 µM; GI50 (RXF-631 renal): 12.7 µM
CCC[CH2][Sn]([CH2]CCC)([O]C(C)=O)[O]C(C)=O | – | 3.81 µM | 1.24 µM | 2.58 µM | 2.49 µM | 7.04 µM | 2.33 µM | – | – | GI50 (KM20L2 colon): 1.9 µM; GI50 (LXFL 529 NSCLC): 0.241 µM; GI50 (DLD-1 colon): 1.19 µM; GI50 (XF 498 CNS): 1.21 µM; GI50 (DMS 273 small cell lung): 2.19 µM; GI50 (SNB-78 CNS): 0.511 µM
Cn1c(=O)c2[nH]c(/N=N/N3CCN(CCO)CC3)nc2n(C)c1=O | – | – | – | – | – | – | – | – | > 100 µM | –
CC12CCC(=O)C=C1CCC1C2CCC2(C)C(C(=O)Cn3cnc4c(=S)nc[nH]c43)CCC12 (configuration not stated) | – | – | – | – | – | – | – | – | > 100 µM | –
CC1=C2CCCC2C/C(=N/Nc2ccc([N+](=O)[O-])cc2[N+](=O)[O-])CC1 (configuration not stated) | > 100 µM | > 100 µM | > 100 µM | – | > 100 µM | > 100 µM | – | > 100 µM | – | –
CC1CC2C(=O)NC(=O)C2c2[nH]c3ccccc3c21 (configuration not stated) | > 100 µM | – | > 100 µM | > 100 µM | > 100 µM | > 100 µM | > 100 µM | – | – | –
CCc1ccc(NCc2cc(OC)c(OC)c(OC)c2)cc1 | 4.9 µM and 10.2 µM | 1.32 µM and 1.64 µM | 14 µM and 65.4 µM | > 100 µM | 21.7 µM and 53.9 µM | 13 µM | – | – | 1.17 µM and 0.772 µM | GI50 (MDA-N): < 0.01 µM; GI50 (LXFL 529 NSCLC): 0.523 µM and 1.57 µM; GI50 (DMS 273 small cell lung): 0.19 µM and 0.628 µM
COC(=O)[C@@H]1CSC(=S)N1C(=O)C[C@H]1CC=CC[C@H]1CC(=O)Sc1ccccc1 | – | 39 µM | 30.5 µM | 35.3 µM | 34.5 µM | 44.1 µM | 49.2 µM | – | – | –
CCCC(O)[C@@H](O)c1ccc2c(c1O)C(=O)c1c(OC)cccc1C2=O (some centres not stated) | 61.9 µM | > 100 µM | – | > 100 µM | 36.3 µM | > 100 µM | 91.1 µM | 75.4 µM | – | –

SMILES | TGI (DMS 114 small cell lung) | TGI (KM20L2 colon) | TGI (LXFL 529 NSCLC) | TGI (DLD-1 colon) | TGI (XF 498 CNS) | TGI (DMS 273 small cell lung) | TGI (SNB-78 CNS) | TGI (RXF-631 renal) | TGI (MDA-N) | other results
CC1(Sc2ccccc2)CN(Cc2ccccc2)C1=O (configuration not stated) | > 100 µM | > 100 µM | – | > 100 µM | > 100 µM | > 100 µM | > 100 µM | > 100 µM | – | –
CS(=O)(=O)CC1=Nc2nnc(CCCCCCCc3nnc4n3C(=O)C(CS(C)(=O)=O)=N4)n2C1=O | > 100 µM | > 100 µM | > 100 µM | – | > 100 µM | – | – | – | – | –
COC(=O)c1[nH]c(=S)[nH]c(=O)c1-c1ccc(Cl)cc1 | > 50 µM | > 50 µM | > 50 µM | > 50 µM | > 50 µM | > 50 µM | > 50 µM | > 50 µM | – | –
O=C1C/C(=C/c2ccc(/C=C3/CC(=O)N(c4cccc(Br)c4)C3=O)cc2)C(=O)N1c1cccc(Br)c1 | > 100 µM | > 100 µM | > 100 µM | > 100 µM | > 79 µM | > 100 µM | > 100 µM | – | – | –
C=C1C(=O)O[C@H]2C[C@@H](C)[C@@H]3CC(=O)OC[C@@]3(C)CC12 (some centres not stated) | – | 52.2 µM | – | 74.3 µM | – | > 100 µM | – | – | – | –
Cc1ccc2c(c1)C1(C)OC(CC(N)C1O)O2 (configuration not stated) | > 100 µM | – | – | > 100 µM | – | > 100 µM | – | – | – | –
CC(=O)/C(=C\c1ccco1)C(=O)Nc1ccccc1 | > 100 µM | – | > 100 µM | > 100 µM | > 100 µM | – | > 100 µM | – | – | –
O=C(O)CS(=O)(=O)C(c1ccccc1)c1ccccc1 | – | – | – | – | – | – | – | – | > 100 µM | –
C=C(C)[C@@H]1CC=C(CO)CC1 | 709 µM | 945 µM | 1320 µM | 922 µM | 680 µM | – | 988 µM | 1210 µM | > 10 µM | –
C=C1C(=O)OC2CC3(C)C=CC(=O)C(=C)C3CC12 (configuration not stated) | 9.57 µM | 6.88 µM | 1.93 µM | 1.51 µM | 3.35 µM | 2.64 µM | 14 µM | – | – | –
CC1=CC(=O)c2c(O)cccc2C1=O | – | – | – | – | – | – | – | – | 3.23 µM | –
COC12C=CC(CC1)c1c(O)ccc(O)c12 (configuration not stated) | > 100 µM | > 100 µM | > 71.3 µM | > 100 µM | 44 µM | > 87 µM | > 100 µM | – | – | –
O=C(O)[C@@H]1C2CC([C@@H]1C(=O)O)[C@H](N1C(=O)CCC1=O)[C@@H]2Br (some centres not stated) | – | – | – | – | – | – | – | – | > 100 µM | –
CN(C)c1ccc2c(NCCCCCCNc3ccnc4cc(N(C)C)ccc34)ccnc2c1 | 66.6 µM | – | – | > 100 µM | 11.9 µM | 21.3 µM | > 100 µM | > 100 µM | – | –
CC[C@](C)(O)C(=O)O[C@H]1C(=O)O[C@@H]2C[C@H]3C(C)=CC(=O)[C@@H](O)[C@]3(C)[C@H]3[C@@]4(O)OC[C@]32[C@@H]1[C@@H](C)[C@H]4O | < 0.0257 µM | 4.77 µM and 16.9 µM | 0.0317 µM | – | – | 0.0425 µM and 0.205 µM | 0.289 µM and 0.28 µM | 2.77 µM | 2.29 µM | TGI (P388 leukemia): 0.198 µM; GI50 (DMS 114 small cell lung): < 0.0124 µM; GI50 (KM20L2 colon): 0.267 µM and 0.136 µM; TGI (SN12K1 renal): 0.0598 µM; GI50 (DMS 273 small cell lung): 0.0127 µM; GI50 (SNB-78 CNS): 0.0556 µM
CC(C)(C(=O)NN)c1ccccc1 | – | – | – | – | – | – | – | – | > 100 µM | –
